# From the supplement of paper PMC10307832
# Experiments:
# Test in all cases: relative viability (nuclei count vs DMSO), 5 days (fraction); higher = more cells survive
# Navitoclax = compound: CC1(C)CCC(c2ccc(Cl)cc2)=C(CN2CCN(c3ccc(C(=O)NS(=O)(=O)c4ccc(N[C@H](CCN5CCOCC5)CSc5ccccc5)c(S(=O)(=O)C(F)(F)F)c4)cc3)CC2)C1 [Navitoclax]
# In short: (§1)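 A plate was accepted only when its control CV was below 25% and the cells had doubled at least once. Viability is defined from nuclear counts as treated wells divided by vehicle wells, with the median taken across plates. That median covers lung cancer cell lines grown in 1536-well plates, dosed by pinning at five √10-spaced library-drug concentrations, and counted in MetaXpress from 4× Hoechst images after 5 days.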
# C-75 = compound: CCCCCCCC[C@H]1[C@@H](C(=C)C(=O)O1)C(=O)O [C-75]
# In short: as §1
# AZD7762 = compound: NC(=O)Nc1cc(-c2cccc(F)c2)sc1C(=O)N[C@H]1CCCNC1 [AZD7762]
# In short: as §1
# [1] = compound: O=C(O)c1ccc(-c2c[nH]c3ncc(-c4ccccc4)cc23)cc1C1CCCC1
# In short: as §1
# XAV939 = compound: Oc1nc(-c2ccc(C(F)(F)F)cc2)nc2c1CSCC2 [XAV939]
# In short: as §1
Cell Line,relative viability (Navitoclax; 0.005 µM),relative viability (Navitoclax; 0.01581 µM),relative viability (Navitoclax; 0.05 µM),relative viability (Navitoclax; 0.1581 µM),relative viability (Navitoclax; 0.5 µM),"relative viability (Navitoclax; 0.5 µM, anchor plate)",relative viability (C-75; 0.08 µM),relative viability (C-75; 0.253 µM),relative viability (C-75; 0.8 µM),relative viability (C-75; 2.53 µM),relative viability (C-75; 8 µM),relative viability (AZD7762; 0.01 µM),relative viability (AZD7762; 0.03162 µM),relative viability (AZD7762; 0.1 µM),"relative viability (AZD7762; 0.2 µM, anchor plate)",relative viability (AZD7762; 0.3162 µM),relative viability (AZD7762; 1 µM),relative viability ([1]; 0.04 µM),relative viability ([1]; 0.1265 µM),relative viability ([1]; 0.4 µM),relative viability ([1]; 1.265 µM),relative viability (XAV939; 0.08 µM),relative viability (XAV939; 0.253 µM),relative viability (XAV939; 0.8 µM),relative viability (XAV939; 2.53 µM)
NCI-H23,0.925,0.979,0.98,0.896,0.962,0.869,0.897,1.07,0.867,0.687,0.44,0.866,1.07,0.993,0.273,0.693,0.278,0.947,1.22,0.812,0.699,0.973,0.796,0.982,0.838
COR-L 105,0.808,1.21,0.965,0.98,0.922,0.841,0.939,0.876,0.877,0.755,0.801,0.949,0.918,0.822,–,0.613,0.502,1,0.951,0.945,0.88,1.03,0.857,0.78,0.6
HCC-827,1.07,1.12,0.953,1.04,1.05,1.02,1.01,0.953,1.01,0.976,1.07,1.05,1.08,1.08,0.23,1.1,0.731,0.96,1.07,0.993,0.863,1.04,1.06,0.991,1.02
RERF-LC-KJ,0.973,0.98,0.961,1.01,0.997,0.987,1.02,1.14,0.981,0.95,1.06,0.976,1.03,1.06,1.03,1.04,0.959,1.02,0.96,0.985,0.916,0.968,0.862,0.859,0.743
NCI-H1915,0.968,0.963,1.05,0.923,0.886,0.789,0.987,1.05,0.959,0.862,0.823,1.01,1.01,1.05,0.72,0.99,0.89,1.02,0.974,0.955,0.857,1.03,0.973,1.01,0.96
HCC-44,0.897,0.906,0.977,0.849,0.96,0.98,1,0.991,0.908,0.824,1.05,1.01,0.958,1.06,1,0.874,0.914,0.97,0.99,0.973,0.928,0.962,0.899,0.915,0.929
NCI-H322M,1.03,1.1,0.926,0.974,1.06,1.24,0.964,1.22,0.905,0.839,0.952,0.956,1.06,0.928,0.589,0.683,0.397,1.01,1.02,0.956,0.886,1.03,0.835,0.852,0.655
Calu-6,0.979,1.01,1.1,0.933,0.93,0.824,1.03,1.02,0.964,0.912,0.948,1.05,0.992,0.873,–,0.475,0.145,0.982,1.01,0.955,0.78,1.07,0.904,0.985,0.944
SK-MES-1,1.01,1.17,1.11,0.95,1.04,1.25,1.01,1.02,0.937,0.93,0.943,1,1.03,1.05,–,0.818,0.372,1,1.05,0.943,0.755,1.07,0.906,0.919,0.858
NCI-H1793,0.977,1.09,–,0.866,0.702,0.491,0.822,1.1,0.795,0.768,1.05,1.02,1.1,0.961,0.538,0.924,0.555,0.91,1.28,0.9,0.956,1.12,0.748,1.01,0.863
NCI-H2347,1.02,1.12,0.906,1.02,1.03,0.757,0.991,1.09,0.973,0.862,1.02,1.16,1.04,1.24,0.812,1.21,0.922,1.1,1.08,1.02,0.906,1.19,0.978,0.964,0.84
EPLC-272H,0.993,–,0.888,0.922,0.921,1.13,1.06,1.01,0.78,0.744,0.575,0.892,1.06,0.935,0.278,0.742,0.267,0.976,1.1,0.992,0.697,0.95,0.97,0.92,0.957
NCI-H661,0.985,0.995,1.05,0.916,0.935,–,0.983,1.01,0.98,0.911,0.94,1.03,1.11,1.1,–,0.979,0.558,0.915,1.02,0.969,1.01,1.02,0.952,0.945,0.956
COR-L23,0.934,1.16,1.15,0.974,0.965,1.01,0.965,1.04,0.945,0.778,1.06,1.1,0.912,1.17,–,0.854,0.231,0.921,1.01,0.973,0.723,1.11,0.92,1.01,0.928
NCI-H358,1.01,1.2,0.961,0.985,0.977,–,0.849,0.896,0.874,0.854,0.693,1.02,1.13,0.878,0.536,0.758,0.444,0.893,1.17,0.88,0.611,0.795,0.77,0.857,0.777
NCI-H2009,0.964,1.14,1.02,1.04,1.04,1.16,0.999,0.991,0.911,0.81,0.905,1.07,0.994,1.1,–,1,0.834,1.01,1.01,0.963,0.762,1.12,0.996,0.924,0.899
NCI-H1734,1.03,1.08,–,0.888,1.01,0.859,1.09,0.949,0.956,0.632,0.766,0.977,1.12,1.02,0.575,0.856,0.507,0.985,1.11,0.939,0.764,1.03,0.913,0.92,0.842
NCI-H460,0.988,1.01,0.951,0.977,0.963,1.08,1.01,1.04,0.922,0.768,0.946,1.06,1,1.01,0.618,0.954,0.387,1.01,1.05,0.991,0.92,0.996,0.88,0.944,0.929
SW 900,0.841,1.06,0.667,0.742,0.925,–,0.786,1.11,0.719,0.695,0.867,0.876,0.957,1.17,0.68,0.891,0.475,0.846,0.915,0.777,0.741,0.954,0.832,0.928,0.677
NCI-H1666,1.02,1.02,0.853,1.02,1.01,0.994,1.05,1.21,0.946,0.721,0.96,1.09,1.04,1.1,0.895,1.01,0.98,0.958,1.01,0.949,0.68,1.03,0.98,0.977,0.929
NCI-H2342,1.01,0.999,0.938,0.961,1.01,–,0.924,0.988,0.833,0.857,1.04,0.903,1.1,0.983,0.514,0.997,1.04,0.943,0.985,0.979,1.1,1.04,0.794,0.781,0.508
LC-2-ad,0.961,1.07,0.925,0.948,0.991,0.445,1.05,1.02,0.93,0.789,0.986,0.992,1.1,0.998,0.86,0.908,0.644,0.973,1.1,0.933,0.692,1.03,0.904,0.953,1
NCI-H520,0.997,0.925,1.14,0.99,0.94,1.12,1.02,1.21,0.952,0.615,0.825,1.09,1.01,0.972,–,0.89,0.337,1.03,0.894,1.01,0.902,1.09,0.965,0.87,0.928
NCI-H1703,0.907,1.05,0.933,0.994,0.939,1.18,0.993,0.929,0.83,0.869,0.817,0.767,0.35,0.276,0.132,0.174,0.194,0.949,1.04,1.11,1.02,1.05,0.98,0.929,0.812
LCLC-103H,1.02,1.03,0.83,1.04,1.05,–,0.919,0.998,0.909,0.788,1.03,1.03,0.974,1.02,0.796,0.907,0.992,1.01,1.08,0.991,1.09,1.08,0.914,0.92,0.831
NCI-H2023,0.919,1.04,0.958,0.97,0.909,0.994,1,1.13,0.864,0.535,0.852,0.965,0.841,0.491,–,0.262,0.132,1.07,1.06,0.994,0.75,1.02,0.827,0.817,0.755
NCI-H1944,0.942,1.09,0.766,0.913,0.892,1.05,0.871,0.909,0.929,–,0.9,1,1,1.1,0.566,0.967,0.605,0.92,1.07,0.907,0.874,1.12,0.907,0.898,0.87
